Results taken from ChEMBL document CHEMBL1201862, “PubChem BioAssay data set” (2004).
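Grown in 96-well plates, cells were treated for 48 hours with each compound at five concentrations. Insufficient inhibition: endpoint recorded as highest concentration tested. GI50 marks 50% less growth.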 Calls of active or inactive are those of the source. Rule as the data show it: active = GI50 up to about 1.1 µM and inactive = higher.

Legend:
Test in all cases: NCI anticancer screen, dose series, 48 h
[1] = tested on: 786-0
[2] = tested on: A498
[3] = tested on: A549
[4] = tested on: ACHN
[5] = tested on: BT-549
[6] = tested on: CAKI-1
[7] = tested on: CCRF-CEM
[8] = tested on: COLO 205
[9] = tested on: DU-145
[10] = tested on: EKVX
[11] = tested on: HCC 2998
[12] = tested on: HCT-116
[13] = tested on: HCT-15
[14] = tested on: HL-60
[15] = tested on: HOP-62
[16] = tested on: HOP-92
[17] = tested on: HT-29
[18] = tested on: Hs-578T
[19] = tested on: IGROV-1
[20] = tested on: K562
[21] = tested on: KM12
[22] = tested on: LOX IMVI
[23] = tested on: M14
[24] = tested on: MCF7
[25] = tested on: MDA-MB-231
[26] = tested on: MDA-MB-435
[27] = tested on: MDA-N
[28] = tested on: MOLT-4
[29] = tested on: Malme-3M
[30] = tested on: NCI-H226
[31] = tested on: NCI-H23
[32] = tested on: NCI-H522
[33] = tested on: NCI/ADR-RES
[34] = tested on: OVCAR-3
[35] = tested on: OVCAR-4
[36] = tested on: OVCAR-5
[37] = tested on: OVCAR-8
[38] = tested on: PC-3
[39] = tested on: RPMI-8226
[40] = tested on: RXF 393
[41] = tested on: SF-268
[42] = tested on: SF-295
[43] = tested on: SF-539
[44] = tested on: SK-MEL-28
[45] = tested on: SK-MEL-2
[46] = tested on: SK-MEL-5
[47] = tested on: SK-OV-3
[48] = tested on: SN12C
[49] = tested on: SNB-19
[50] = tested on: SNB-75
[51] = tested on: SR
[52] = tested on: SW-620
[53] = tested on: T47D
[54] = tested on: TK-10
[55] = tested on: U-251
[56] = tested on: UACC-257
[57] = tested on: UACC-62
[58] = tested on: UO-31

With `Cc1ccc(C(=O)Nc2ccc(CP(=O)(O)O)cc2)cc1NC(=O)c1cccc(N)c1` the GI50 [1] was > 100 µM (inactive), the GI50 [2] was > 100 µM (inactive) and the GI50 [3] was > 100 µM (inactive). For the same molecule, the GI50 [4] was > 100 µM (inactive), the GI50 [5] was > 100 µM (inactive) and the GI50 [6] was > 100 µM (inactive). For the same molecule, the GI50 [7] was > 100 µM (inactive), the GI50 [8] was > 100 µM (inactive) and the GI50 [9] was > 100 µM (inactive). For the same molecule, the GI50 [10] was > 100 µM (inactive), the GI50 [11] was > 100 µM (inactive) and the GI50 [12] was > 100 µM (inactive). For the same molecule, the GI50 [13] was over 100 µM, the GI50 [14] was > 100 µM (inactive) and the GI50 [15] was > 100 µM (inactive). The GI50 [16] was > 100 µM (inactive), the GI50 [17] was > 100 µM (inactive) and the GI50 [18] was > 100 µM (inactive). The GI50 [19] was > 100 µM (inactive), the GI50 [20] was > 100 µM (inactive) and the GI50 [21] was > 100 µM (inactive). For the same molecule, the GI50 [22] was > 100 µM (inactive), the GI50 [23] was > 100 µM (inactive) and the GI50 [24] was > 100 µM (inactive). For the same molecule, the GI50 [25] was > 100 µM (inactive), the GI50 [26] was > 100 µM (inactive) and the GI50 [27] was > 100 µM (inactive). For the same molecule, the GI50 [28] was > 100 µM (inactive), the GI50 [29] was > 100 µM (inactive) and the GI50 [30] was > 100 µM (inactive). For the same molecule, the GI50 [31] was > 100 µM (inactive), the GI50 [32] was > 100 µM (inactive) and the GI50 [33] was > 100 µM (inactive). The GI50 [34] was > 100 µM (inactive), the GI50 [35] was > 100 µM (inactive) and the GI50 [36] was > 100 µM (inactive). For the same molecule, the GI50 [37] was > 100 µM (inactive), the GI50 [38] was > 100 µM (inactive) and the GI50 [39] was > 100 µM (inactive). For the same molecule, the GI50 [40] was > 100 µM (inactive), the GI50 [41] was > 100 µM (inactive) and the GI50 [42] was > 100 µM (inactive). For the same molecule, the GI50 [43] was > 100 µM (inactive), the GI50 [44] was > 100 µM (inactive) and the GI50 [45] was > 100 µM (inactive). For the same molecule, the GI50 [46] was > 100 µM (inactive), the GI50 [47] was > 100 µM (inactive) and the GI50 [48] was > 100 µM (inactive). For the same molecule, the GI50 [49] was > 100 µM (inactive), the GI50 [50] was > 100 µM (inactive) and the GI50 [51] was > 100 µM (inactive). The GI50 [52] was > 100 µM (inactive), the GI50 [53] was > 100 µM (inactive) and the GI50 [54] was > 100 µM (inactive). For the same molecule, the GI50 [55] was > 100 µM (inactive), the GI50 [56] was > 100 µM (inactive) and the GI50 [57] was > 100 µM (inactive). For the same molecule, the GI50 [58] was > 100 µM (inactive).
